Results as given in patent publication US7560569B2, “Bicycloamide derivative” (Kyorin Pharmaceutical Co., Ltd, priority 2004, dated 2009).

How the values were obtained:
[1] = target: T1, plasma dipeptidylpeptidase IV (Mus musculus, UniProt P28843); assay: Inhibition of plasma dipeptidylpeptidase IV activity in mice by oral administration; assay type: in vivo; conditions: male ICR mice, 0.1 mg/mL at 10 mL/kg, plasma 30 minutes after administration vs before
T1 construct: The blood samples were centrifuged at 6000 rpm for 2 minutes to separate plasma; tissue Charles River Laboratories Japan; host or cells: plasma of male ICR mice
T1 sequence (P28843 37-760 limits assumed): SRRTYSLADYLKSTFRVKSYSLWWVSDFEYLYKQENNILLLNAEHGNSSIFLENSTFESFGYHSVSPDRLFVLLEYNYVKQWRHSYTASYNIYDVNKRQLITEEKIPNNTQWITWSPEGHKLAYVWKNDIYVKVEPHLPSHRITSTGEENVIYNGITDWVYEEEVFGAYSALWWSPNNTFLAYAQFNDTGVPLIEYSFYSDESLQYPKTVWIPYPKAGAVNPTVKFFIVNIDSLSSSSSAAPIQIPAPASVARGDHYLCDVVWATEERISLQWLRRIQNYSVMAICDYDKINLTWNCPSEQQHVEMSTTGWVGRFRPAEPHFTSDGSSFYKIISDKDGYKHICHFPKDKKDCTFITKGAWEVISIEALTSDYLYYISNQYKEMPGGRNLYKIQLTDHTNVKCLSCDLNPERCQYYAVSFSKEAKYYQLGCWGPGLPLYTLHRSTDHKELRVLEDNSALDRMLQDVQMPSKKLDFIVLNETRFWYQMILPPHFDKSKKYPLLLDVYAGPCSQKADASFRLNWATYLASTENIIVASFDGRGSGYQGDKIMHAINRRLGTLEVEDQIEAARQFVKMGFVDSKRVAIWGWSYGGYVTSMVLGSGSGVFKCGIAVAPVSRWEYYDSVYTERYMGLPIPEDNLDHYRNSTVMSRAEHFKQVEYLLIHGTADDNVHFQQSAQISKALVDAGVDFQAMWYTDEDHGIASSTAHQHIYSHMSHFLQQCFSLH
Method: Each compound was suspended in 0.3% sodium carboxymethylcellulose to a concentration of 0.1 mg/mL. The preparation was orally administered to 8-week old male ICR mice (Charles River Laboratories Japan) at a dose of 10 mL/kg. Using an EDTA 2K-treated capillary tube, blood samples were collected from the tail vein before administration and 30 minutes after administration. The blood samples were centrifuged at 6000 rpm for 2 minutes to separate plasma. […] The inhibition was determined from the decrease in the enzymatic activity from the initial activity (% inhibition={(activity before administration−activity after administration)/(activity before administration)}×100).

[2] = target: plasma dipeptidylpeptidase IV (UniProt P27487); assay: In vitro dipeptidylpeptidase IV inhibition (H-Gly-Pro-AMC hydrolysis, fluorometry); assay type: biochemical; conditions: plasma diluted 8-fold, H-Gly-Pro-AMC.HBr substrate, room temperature 20 minutes
Method: The concentration of free 7-amino-4-methyl-coumarin (AMC) generated by hydrolysis of H-Gly-Pro-AMC.HBr substrate by plasma dipeptidylpeptidase IV was determined by fluorometry.
A 20 μL of buffer (25 mmol/L hepes, 140 mmol/L sodium chloride, 1% bovine serum albumin, 80 mmol/L magnesium chloride hexahydrate, pH 7.4) containing each compound was added to 20 μL of plasma diluted 8-fold with saline in a well of a 96-well flat bottom plate. The plate was left at room temperature for 5 minutes and 10 μL of 0.1 mmol/L H-Gly-Pro-AMC.HBr solution was added to each well to initiate the reaction. […] Using a fluorescent plate reader, the free AMC concentration was determined by exciting the samples at 355 nm and measuring the fluorescence intensity at 460 nm.

| SMILES | inhibition at 100 µg/mL (stock) [1] | IC50 [2] |
| --- | --- | --- |
| CN1CCN(C(=O)C23CCC(NCC(=O)N4C[C@@H](F)C[C@H]4C#N)(CC2)CC3)CC1 [Example 8, (2S,4S)-4-fluoro-1-[[N-[4-(4-methylpiperazin-1-yl)carbonylbicyclo[2.2.2]oct-1-yl]amino]acetyl]pyrrolidine-2-carbonitrile] | – | 0.83 nM |
| N#C[C@@H]1C[C@H](F)CN1C(=O)CNC12CCC(C(=O)N3CCC3)(CC1)CC2 [Example 15, (2S,4S)-1-[[[4-(azetidin-1-yl)carbonylbicyclo[2.2.2]oct-1-yl]amino]acetyl]-4-fluoropyrrolidine-2-carbonitrile] | 66% | – |
| N#C[C@@H]1C[C@H](F)CN1C(=O)CNC12CCC(C(=O)N3CC[C@@H](F)C3)(CC1)CC2 [Example 16, (2S,4S,3′ R)-4-fluoro-1-[[N-[4-(3-fluoropyrrolidin-1-yl)carbonylbicyclo[2.2.2]oct-1-yl]amino]acetyl]pyrrolidine-2-carbonitrile] | – | 0.082 nM |

The next lines start with the values.

| inhibition at 100 µg/mL (stock) [1] | IC50 [2] | SMILES |
| --- | --- | --- |
| 71% | 0.89 nM | N#C[C@@H]1C[C@H](F)CN1C(=O)CNC12CCC(C(N)=O)(CC1)CC2 [Example 1, (2S,4S)-1-[[(4-carbamoylbicyclo[2.2.2]oct-1-yl)amino]acetyl]-4-fluoropyrrolidine-2-carbonitrile] |
| 87% | – | CN(C)C(=O)C12CCC(NCC(=O)N3C[C@@H](F)C[C@H]3C#N)(CC1)CC2 [Example 9, (2S,4S)-1-[[N-[4-(dimethylamino)carbonylbicyclo[2.2.2]oct-1-yl]amino]acetyl]-4-fluoropyrrolidine-2-carbonitrile] |
| 77% | – | CC(C)(C)NC(=O)C12CCC(NCC(=O)N3C[C@@H](F)C[C@H]3C#N)(CC1)CC2 [Example 30, (2S,4S)-1-[[N-[4-(N-2,2-dimethylethylamino)carbonylbicyclo[2.2.2]oct-1-yl]amino]acetyl]-4-fluoropyrrolidine-2-carbonitrile] |
| 70% | 0.057 nM | C=CCNC(=O)C12CCC(NCC(=O)N3C[C@@H](F)C[C@H]3C#N)(CC1)CC2 [Example 52, (2S,4S)-4-fluoro-1-[[N-[4-[N-(2-propenyl)amino]carbonylbicyclo[2.2.2]oct-1-yl]amino]acetyl]pyrrolidine-2-carbonitrile] |
